PMC10970924 (Life, 2024)
Marks after values point to notes of the source that are not given here.

Tests used:
[1] = Neutralization of the ABTS radical; conditions: for EC50: 37 °C, 15 min, 738 nm, read-out: EC50 of half-maximal ABTS radical inhibition; for Trolox Equivalent Antioxidant Capacity (TEAC): ABTS radical neutralization, relative to Trolox
Protocol: Initially, an ABTS solution was prepared in water at a concentration of 7 mM. Subsequently, the radical cation ABTS^•+ was generated by mixing the original ABTS solution with 2.45 mM ammonium persulfate at a 1:1 ratio. This mixture was then allowed to stand in the dark at room temperature for 12–16 h before use. The diluted ABTS^•+ solution was prepared in a methanol/water mixture (1:1) reaching an optical density of 0.7 units at 738 nm (~0.7 mM). Next, various concentrations of compounds (ranging from 1000, 500, 250, 125, 62.5, 31.2, 15.6, to 7.8 μM) in a volume of 130 µL in a methanol/water mixture (1:1) were mixed with the ABTS radical cation solution (~0.7 mM) in a volume of 130 µL. The mixture was then incubated at 37 °C in a water bath for 15 min. The optical density was measured at 738 nm using the Infinite M200 PRO (TECAN, Zürich, Switzerland) plate reader. The percentage inhibition of ABTS absorption relative to the control was calculated. A percent inhibition vs. antioxidant concentration graph was plotted and the concentration of the antioxidant that suppresses the optical density of the ABTS radical by 50% (EC50) was determined. The Trolox Equivalent Antioxidant Capacity (TEAC) was also calculated.

porcine neuronal tubulin = assay: Tubulin polymerization assay (Cytoskeleton kit); format: biochemical; conditions: effector 10 µM; for Maximum Initial Rate of Polymerization V Max: tubulin 3 mg/mL, 37 °C
Protocol: To assess the effect of the test compounds on tubulin polymerization, a test kit from Cytoskeleton was used. The plate was pre-warmed to 37 °C for 20 min before starting the assay. Then, 10 µL of the compound of interest, at a 10-fold concentration in an assay buffer, was pipetted into the plate. For comparison, paclitaxel, a polymerization enhancer, and vinblastine, a tubulin polymerization inhibitor, were used. Both effectors were used at a concentration of 10 µM. The assay buffer served as a control. The plate was then incubated at 37 °C for 2 min, after which 100 µL of the diluted tubulin solution (containing 3 mg/mL of tubulin in 80 mM PIPES pH 6.9, 2 mM MgCl2, 0.5 mM EGTA, 1 mM GTP, and 7% glycerol) was added. The plate was then immediately placed in the plate reader. Absorbance was measured at 340 nm every minute for 61 readings on a Varioskan LUX (Thermo Scientific, Waltham, MA, USA) plate reader.

EC50 [1] [µM]	Compound	Trolox Equivalent Antioxidant Capacity (TEAC) [1]	Maximum Initial Rate of Polymerization V Max (porcine neuronal tubulin)	further results
3.2 ± 1.6	O=c1c(O)c(-c2ccc(O)c(O)c2)oc2cc(O)cc(O)c12 [Quercetin]	4.9		
15.7 ± 3.4	Cc1c(C)c2c(c(C)c1O)CCC(C)(C(=O)O)O2 (stereo not drawn) [Trolox]	1.0		

The next lines start with the compound.

Compound	EC50 [1] [µM]	Trolox Equivalent Antioxidant Capacity (TEAC) [1]	Maximum Initial Rate of Polymerization V Max (porcine neuronal tubulin)	further results
O=C1O[C@H]([C@@H](O)CO)C(O)=C1O [Ascorbic acid]	15.2 ± 4.8	1.03		
CC(=O)O[C@H]1C(=O)[C@@]2(C)[C@H]([C@H](OC(=O)c3ccccc3)[C@]3(O)C[C@H](OC(=O)[C@H](O)[C@@H](NC(=O)c4ccccc4)c4ccccc4)C(C)=C1C3(C)C)[C@]1(OC(C)=O)CO[C@@H]1C[C@@H]2O [Paclitaxel, paclitaxel]			8 * mOD/Min	Vmax, times higher than in the control reaction (porcine neuronal tubulin): 1.2; Maximum Initial Rate of Polymerization V Max (porcine neuronal tubulin; listed as paclitaxel): 8.0 mOD/Min
CC[C@]1(O)C[C@@H]2CN(CCc3c([nH]c4ccccc34)[C@@](C(=O)OC)(c3cc4c(cc3OC)N(C)[C@H]3[C@@](O)(C(=O)OC)[C@H](OC(C)=O)[C@]5(CC)C=CCN6CC[C@]43[C@@H]65)C2)C1 [Vinblastine, vinblastine]			2.4 * mOD/Min	Inhibition of tubulin polymerization, fold (porcine neuronal tubulin): 3; Maximum Initial Rate of Polymerization V Max (porcine neuronal tubulin; listed as vinblastine): 2.4 mOD/Min
